Reference: ChEMBL document CHEMBL1201862, “PubChem BioAssay data set” (2004)
Active and inactive are the calls of the source.

What was measured:
[1] = system: Escherichia coli; experiment: microbe, parasite or virus in culture
[2] = Luminescence Cell-Based Dose Confirmation HTS to Identify Activators of 5'UTR Stem-Loop Driven Alpha-Synuclein mRNA Translation in H4 Neuroglioblastoma Cells. [Related pubchem assays: 1829 (Project Summary), 1814 (Primary HTS)]; type: functional
[3] = Luminescence Cell-Based Dose Response HTS to Identify Activators of Luciferase Translation or Activity in H4 […] Cells. [Related pubchem assays: 1829 (Project Summary), 1814 (Primary HTS)]; type: functional
[4] = cells; type: functional
[5] = biological target: T1, High affinity choline transporter 1 (Homo sapiens, UniProt Q9GZV3); experiment: human choline transporter blockers, potency – cell-based, 5-point CRC, membrane potential dye, dose response (AID 504840); type: functional
T1 sequence (Q9GZV3 whole entry): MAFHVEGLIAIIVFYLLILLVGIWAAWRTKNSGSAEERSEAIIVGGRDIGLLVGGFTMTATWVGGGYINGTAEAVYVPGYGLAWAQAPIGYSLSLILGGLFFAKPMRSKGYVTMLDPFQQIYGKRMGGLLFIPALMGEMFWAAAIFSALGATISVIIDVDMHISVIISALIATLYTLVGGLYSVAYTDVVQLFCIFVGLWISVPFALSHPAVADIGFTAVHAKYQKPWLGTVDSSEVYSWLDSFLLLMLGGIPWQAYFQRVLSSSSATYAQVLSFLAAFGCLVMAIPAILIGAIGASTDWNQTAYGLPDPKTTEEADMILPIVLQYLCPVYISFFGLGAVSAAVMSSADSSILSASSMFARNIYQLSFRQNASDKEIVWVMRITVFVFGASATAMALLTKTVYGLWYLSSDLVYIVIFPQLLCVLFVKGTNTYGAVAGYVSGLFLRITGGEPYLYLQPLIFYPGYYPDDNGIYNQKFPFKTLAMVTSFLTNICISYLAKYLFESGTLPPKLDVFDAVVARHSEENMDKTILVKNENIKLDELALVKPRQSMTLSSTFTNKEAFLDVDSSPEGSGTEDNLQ

[6] = system: HEK293; experiment: EBV LMP1 TES2 canonical NF-kB signalling blockers – cell-based, HEK293, luciferase, cherry-pick, dose response (AID 588343); type: functional; conditions: Homo sapiens
[7] = biological target: Dual specificity protein kinase CLK1 (Homo sapiens, UniProt P49759); experiment: inhibition of human CLK1 activity – biochemical, cherry-picked samples, selectivity assay for Dyrk1A inhibitor project, dose response (AID 588811)
[8] = system: Vero; experiment: cells; type: functional; conditions: Chlorocebus sabaeus
[9] = biological target: T2, Short transient receptor potential channel 4 (Mus musculus, UniProt Q9QUQ5); experiment: calcium entry via TRPC4 opening agents – cell-based, HEK293 TRPC4/mu-opioid, Fluo-4 calcium, dose response (AID 434937); type: functional
T2 sequence (Q9QUQ5 whole entry): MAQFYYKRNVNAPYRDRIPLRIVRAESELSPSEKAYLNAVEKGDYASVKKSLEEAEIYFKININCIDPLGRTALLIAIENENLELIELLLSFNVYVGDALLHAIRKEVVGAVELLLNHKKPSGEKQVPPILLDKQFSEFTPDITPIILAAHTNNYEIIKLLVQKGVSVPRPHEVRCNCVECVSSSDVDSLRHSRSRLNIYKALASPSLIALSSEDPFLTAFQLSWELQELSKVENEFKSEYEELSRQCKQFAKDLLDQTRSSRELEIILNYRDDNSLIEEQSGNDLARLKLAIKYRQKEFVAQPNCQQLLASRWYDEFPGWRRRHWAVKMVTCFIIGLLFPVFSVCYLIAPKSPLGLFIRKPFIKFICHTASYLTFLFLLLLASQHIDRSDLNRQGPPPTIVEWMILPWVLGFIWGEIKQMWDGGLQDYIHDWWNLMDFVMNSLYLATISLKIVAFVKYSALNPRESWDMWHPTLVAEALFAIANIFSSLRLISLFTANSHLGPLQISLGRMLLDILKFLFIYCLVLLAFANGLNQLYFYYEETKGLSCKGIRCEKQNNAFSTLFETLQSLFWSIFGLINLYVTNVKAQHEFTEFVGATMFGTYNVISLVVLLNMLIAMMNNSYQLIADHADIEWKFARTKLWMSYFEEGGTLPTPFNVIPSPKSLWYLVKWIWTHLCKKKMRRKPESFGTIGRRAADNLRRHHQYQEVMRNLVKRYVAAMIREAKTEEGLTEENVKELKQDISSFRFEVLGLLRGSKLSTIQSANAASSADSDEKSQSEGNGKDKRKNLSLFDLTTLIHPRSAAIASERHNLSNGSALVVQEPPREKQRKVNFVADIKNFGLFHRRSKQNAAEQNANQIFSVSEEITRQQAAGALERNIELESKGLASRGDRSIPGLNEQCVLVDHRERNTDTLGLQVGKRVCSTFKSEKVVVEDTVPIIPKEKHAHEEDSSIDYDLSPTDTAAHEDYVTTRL

[10] = biological target: Delta-type opioid receptor (Homo sapiens, UniProt P41143); experiment: Counterscreen for agonists of heterodimerization of the mu 1 (OPRM1) and delta 1 (OPRD1) opioid receptors: Luminescence-based cell-based high throughput dose response assay to identify agonists of OPRD1 homodimerization. [Related pubchem assays (depositor defined):AID504326, AID504355, AID504692, AID504904, AID504905]; type: functional
[11] = biological target: Mu-type opioid receptor (Homo sapiens, UniProt P35372); experiment: Counterscreen for agonists of heterodimerization of the mu 1 (OPRM1) and delta 1 (OPRD1) opioid receptors: Luminescence-based cell-based high throughput dose response assay to identify agonists of OPRM1 homodimerization.; type: functional;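 further: U2OS cells expressing OPRM1 and beta-arrestin as split beta-galactosidase partners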
[12] = biological target: 5-hydroxytryptamine receptor 5A (Homo sapiens, UniProt P47898); experiment: Counterscreen for agonists of OPRM1-OPRD1 heterodimerization: luminescence-based cell-based high throughput dose response assay to identify agonists of 5-hydroxytryptamine (serotonin) 5A receptor (HTR5A). [Related pubchem assays (depositor defined):AID504326, AID504355, AID504692, AID504904, AID504905]; type: functional
[13] = biological target: T2, Short transient receptor potential channel 4; experiment: block of DAMGO-driven TRPC4 calcium entry – cell-based, HEK293 TRPC4/mu-opioid, Fluo-4 calcium, dose response (AID 434942); type: functional;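 further: potency of inhibitors blocking the TRPC4 calcium response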
[14] = system: H9c2; experiment: cells; type: functional, cell-based; conditions: Rattus norvegicus, H9c2, Myocardium;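 further: confirmatory concentration-response retest of ultra-high-throughput screening hits for modulation of myocardial damage; cell death induced by hydrogen peroxide oxidative stress; compound pretreatment for 60 min then peroxide exposure for 2 h; potency is for protecting the cells against peroxide damage rather than for killing them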
[15] = biological target: 26S proteasome non-ATPase regulatory subunit 14 (Homo sapiens, UniProt O00487); experiment: inhibition of proteasome subunit RPN11 – biochemical, fluorescence polarization, uHTS hits, confirmation (AID 602368); type: functional
[16] = biological target: 72 kDa type IV collagenase (Homo sapiens, UniProt P08253); experiment: Dose Response validation of uHTS RPN11 inhibitor hits using a MMP-2 Fluorescence assay.; type: functional
[17] = biological target: Prothrombin (Bos taurus, UniProt P00735); experiment: thrombin protease inhibitors – biochemical, fluorescence polarization, uHTS hits, dose response (AID 602369); type: functional
[18] = biological target: T3, Bcl-2-related protein A1 (Mus musculus, UniProt Q07440); type: functional;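 further: confirmatory dose–response counterscreen on Bfl-1, used to check hits from a UBC13 polyubiquitin inhibitor campaign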
T3 sequence (Q07440 whole entry): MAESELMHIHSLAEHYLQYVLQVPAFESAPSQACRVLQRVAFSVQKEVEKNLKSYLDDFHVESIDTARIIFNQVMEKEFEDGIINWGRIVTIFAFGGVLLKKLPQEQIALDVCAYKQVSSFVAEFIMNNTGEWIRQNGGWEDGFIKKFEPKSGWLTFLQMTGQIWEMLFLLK

[19] = biological target: T4, Ubiquitin-conjugating enzyme E2 N (Homo sapiens, UniProt P61088); type: functional
T4 sequence (P61088 whole entry): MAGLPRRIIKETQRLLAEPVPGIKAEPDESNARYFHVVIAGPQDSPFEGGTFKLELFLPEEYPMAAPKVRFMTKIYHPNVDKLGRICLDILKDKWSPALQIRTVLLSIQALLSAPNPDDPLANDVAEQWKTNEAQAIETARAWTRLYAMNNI

[20] = biological target: T4, Ubiquitin-conjugating enzyme E2 N; type: functional; remark: listed apart in the source
[21] = biological target: T5, Replicative DNA helicase DnaB (Mycobacterium tuberculosis, UniProt P9WMR3); experiment: DnaB intein splicing inhibitors, dose response, biochemical, cell-free fluorescence (AID 449749); type: functional
T5 sequence (P9WMR3 whole entry): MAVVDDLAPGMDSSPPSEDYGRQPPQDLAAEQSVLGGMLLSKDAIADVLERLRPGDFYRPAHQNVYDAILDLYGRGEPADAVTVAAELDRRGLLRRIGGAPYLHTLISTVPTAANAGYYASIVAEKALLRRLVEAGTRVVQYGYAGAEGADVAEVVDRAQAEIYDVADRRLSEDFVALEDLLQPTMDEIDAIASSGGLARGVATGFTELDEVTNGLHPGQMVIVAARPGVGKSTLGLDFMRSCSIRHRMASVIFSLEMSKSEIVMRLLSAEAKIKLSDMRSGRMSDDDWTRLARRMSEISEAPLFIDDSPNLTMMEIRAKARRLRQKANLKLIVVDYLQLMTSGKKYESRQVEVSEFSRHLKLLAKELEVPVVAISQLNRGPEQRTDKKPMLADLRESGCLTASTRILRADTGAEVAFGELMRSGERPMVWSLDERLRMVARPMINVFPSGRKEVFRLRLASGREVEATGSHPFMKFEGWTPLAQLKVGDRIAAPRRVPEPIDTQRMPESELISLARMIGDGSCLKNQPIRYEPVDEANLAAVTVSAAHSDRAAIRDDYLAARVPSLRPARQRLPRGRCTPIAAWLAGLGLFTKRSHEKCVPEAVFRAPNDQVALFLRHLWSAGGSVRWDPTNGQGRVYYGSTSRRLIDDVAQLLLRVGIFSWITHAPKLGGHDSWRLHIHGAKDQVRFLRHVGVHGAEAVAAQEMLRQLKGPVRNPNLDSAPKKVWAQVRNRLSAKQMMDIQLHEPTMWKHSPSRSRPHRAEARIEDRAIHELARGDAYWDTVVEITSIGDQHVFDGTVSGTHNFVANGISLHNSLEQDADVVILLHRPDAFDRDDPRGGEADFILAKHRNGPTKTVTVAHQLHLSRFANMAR

[22] = biological target: T6, Protein RecA (Mycobacterium tuberculosis, UniProt P9WHJ3); experiment: Fluorescence Cell-Free Homogeneous Dose Retest to Identify Inhibitors of RecA-Intein Splicing Activity. [Related pubchem assays (depositor defined):AID2097, AID2223, AID489010, AID492950]; type: functional
T6 sequence (P9WHJ3 whole entry): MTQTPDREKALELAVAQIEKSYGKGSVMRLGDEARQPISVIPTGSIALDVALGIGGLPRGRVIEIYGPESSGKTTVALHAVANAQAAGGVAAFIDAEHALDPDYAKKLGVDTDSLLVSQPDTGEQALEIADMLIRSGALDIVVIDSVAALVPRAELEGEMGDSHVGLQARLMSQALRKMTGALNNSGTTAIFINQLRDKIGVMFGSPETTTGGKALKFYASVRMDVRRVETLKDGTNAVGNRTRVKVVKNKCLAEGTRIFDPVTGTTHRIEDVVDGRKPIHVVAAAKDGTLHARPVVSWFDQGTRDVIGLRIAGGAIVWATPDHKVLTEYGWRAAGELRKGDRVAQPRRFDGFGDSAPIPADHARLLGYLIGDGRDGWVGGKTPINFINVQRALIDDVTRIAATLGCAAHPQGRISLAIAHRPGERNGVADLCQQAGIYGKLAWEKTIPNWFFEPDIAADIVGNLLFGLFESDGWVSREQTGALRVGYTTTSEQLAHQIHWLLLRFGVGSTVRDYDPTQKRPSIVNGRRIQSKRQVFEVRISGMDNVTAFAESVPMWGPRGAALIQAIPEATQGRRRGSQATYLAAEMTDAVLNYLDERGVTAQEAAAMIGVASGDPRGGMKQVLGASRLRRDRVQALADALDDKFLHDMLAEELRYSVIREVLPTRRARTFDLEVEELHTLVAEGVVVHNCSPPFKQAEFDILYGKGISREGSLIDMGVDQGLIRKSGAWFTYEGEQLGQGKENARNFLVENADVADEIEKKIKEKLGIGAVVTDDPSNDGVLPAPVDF

Sequence of Mu-type opioid receptor (P35372 whole entry): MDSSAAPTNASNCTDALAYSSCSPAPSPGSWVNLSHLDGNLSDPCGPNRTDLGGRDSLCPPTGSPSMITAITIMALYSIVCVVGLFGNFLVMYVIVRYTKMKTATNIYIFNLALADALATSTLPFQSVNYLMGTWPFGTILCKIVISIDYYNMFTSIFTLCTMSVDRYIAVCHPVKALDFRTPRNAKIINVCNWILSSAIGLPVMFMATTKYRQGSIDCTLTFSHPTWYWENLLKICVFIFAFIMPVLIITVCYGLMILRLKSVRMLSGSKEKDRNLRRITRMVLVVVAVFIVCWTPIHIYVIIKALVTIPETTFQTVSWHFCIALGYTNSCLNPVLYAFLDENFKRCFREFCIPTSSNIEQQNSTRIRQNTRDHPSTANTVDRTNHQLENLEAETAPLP
Sequence of Delta-type opioid receptor (P41143 whole entry): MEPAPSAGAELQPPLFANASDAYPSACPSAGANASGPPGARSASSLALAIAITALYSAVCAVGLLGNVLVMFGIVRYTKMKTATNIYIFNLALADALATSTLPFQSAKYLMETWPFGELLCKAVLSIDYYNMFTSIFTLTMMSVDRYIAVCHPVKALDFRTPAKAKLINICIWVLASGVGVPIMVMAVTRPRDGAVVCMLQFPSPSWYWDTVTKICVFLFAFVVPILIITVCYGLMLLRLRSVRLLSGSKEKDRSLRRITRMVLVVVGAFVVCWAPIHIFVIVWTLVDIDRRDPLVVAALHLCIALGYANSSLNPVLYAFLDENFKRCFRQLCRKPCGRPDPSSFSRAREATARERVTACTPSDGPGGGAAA
Sequence of 5-hydroxytryptamine receptor 5A (P47898 whole entry): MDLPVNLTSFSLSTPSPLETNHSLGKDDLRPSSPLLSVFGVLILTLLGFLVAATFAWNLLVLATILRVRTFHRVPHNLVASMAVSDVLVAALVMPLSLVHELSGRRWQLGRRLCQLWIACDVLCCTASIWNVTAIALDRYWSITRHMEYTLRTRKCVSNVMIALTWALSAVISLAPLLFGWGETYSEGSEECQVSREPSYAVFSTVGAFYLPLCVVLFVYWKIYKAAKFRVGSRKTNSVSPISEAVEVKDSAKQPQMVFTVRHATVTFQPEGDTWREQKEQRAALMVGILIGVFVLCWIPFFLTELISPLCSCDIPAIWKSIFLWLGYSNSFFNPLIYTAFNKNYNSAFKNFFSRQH
Sequence of Dual specificity protein kinase CLK1 (P49759 whole entry): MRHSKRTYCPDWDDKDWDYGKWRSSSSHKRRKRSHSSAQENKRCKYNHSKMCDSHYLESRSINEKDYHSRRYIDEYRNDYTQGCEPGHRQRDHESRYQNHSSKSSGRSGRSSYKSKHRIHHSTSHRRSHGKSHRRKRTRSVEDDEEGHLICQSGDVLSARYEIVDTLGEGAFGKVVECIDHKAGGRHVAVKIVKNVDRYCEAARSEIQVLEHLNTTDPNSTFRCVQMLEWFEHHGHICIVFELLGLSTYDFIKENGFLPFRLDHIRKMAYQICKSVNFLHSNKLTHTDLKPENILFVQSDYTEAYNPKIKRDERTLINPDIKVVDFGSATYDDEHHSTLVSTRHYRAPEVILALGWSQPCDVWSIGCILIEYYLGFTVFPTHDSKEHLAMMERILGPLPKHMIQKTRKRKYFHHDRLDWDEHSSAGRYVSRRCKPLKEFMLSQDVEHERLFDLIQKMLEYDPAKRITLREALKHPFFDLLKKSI
Sequence of 26S proteasome non-ATPase regulatory subunit 14 (O00487 whole entry): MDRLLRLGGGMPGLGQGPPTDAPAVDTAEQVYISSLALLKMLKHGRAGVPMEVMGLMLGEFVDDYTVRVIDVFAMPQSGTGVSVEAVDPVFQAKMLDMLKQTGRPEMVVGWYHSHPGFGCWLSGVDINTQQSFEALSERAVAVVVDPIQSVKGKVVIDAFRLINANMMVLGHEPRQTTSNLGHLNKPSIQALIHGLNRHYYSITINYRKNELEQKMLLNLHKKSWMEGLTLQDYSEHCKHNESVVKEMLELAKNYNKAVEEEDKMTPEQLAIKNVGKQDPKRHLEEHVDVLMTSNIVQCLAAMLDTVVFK
Sequence of 72 kDa type IV collagenase (P08253 whole entry): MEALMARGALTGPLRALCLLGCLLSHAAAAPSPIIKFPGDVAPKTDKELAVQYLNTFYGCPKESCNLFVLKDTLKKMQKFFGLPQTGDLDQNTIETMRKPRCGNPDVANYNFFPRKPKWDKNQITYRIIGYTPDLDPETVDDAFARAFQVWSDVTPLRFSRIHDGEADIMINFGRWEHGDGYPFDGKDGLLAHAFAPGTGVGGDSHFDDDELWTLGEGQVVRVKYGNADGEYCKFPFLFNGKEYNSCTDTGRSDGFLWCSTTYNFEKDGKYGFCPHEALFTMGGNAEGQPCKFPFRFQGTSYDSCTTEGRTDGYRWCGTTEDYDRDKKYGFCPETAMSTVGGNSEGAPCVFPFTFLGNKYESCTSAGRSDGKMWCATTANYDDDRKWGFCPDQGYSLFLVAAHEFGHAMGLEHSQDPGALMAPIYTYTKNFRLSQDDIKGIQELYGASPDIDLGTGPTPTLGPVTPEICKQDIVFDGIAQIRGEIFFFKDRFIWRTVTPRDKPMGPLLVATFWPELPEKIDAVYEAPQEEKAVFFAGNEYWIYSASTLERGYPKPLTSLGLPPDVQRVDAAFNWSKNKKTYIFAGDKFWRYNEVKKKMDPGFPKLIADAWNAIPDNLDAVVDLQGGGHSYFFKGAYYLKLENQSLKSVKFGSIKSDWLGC

O=C(Nc1ccccc1Oc1ccccc1)c1ccc(Br)o1
AC50 [1]: > 380 µM (inactive)

CCc1cc2c(=O)n(C(C)C(=O)OC3CCCCC3)cnc2s1 (stereo not given)
EC50 [2]: 105 µM (active) | EC50 [3]: 67.6 µM (active) | IC50 [4]: 17.9 µM (active) | AC50 [1]: 54.4 µM (active)

Fc1ccc(N=C(S)Nc2ccc(F)c(Cl)c2)cc1Cl
IC50 [5]: 7.94 µM (active)

c1csc(CNc2ncnc3ccc(-c4ccoc4)cc23)c1
AC50 [6]: 19 µM (active) | AC50 [7]: 0.00979 µM (active)

Cc1noc(CN(C)c2ncnc3ccc(-c4ccc5c(c4)OCO5)cc23)n1
AC50 [7]: < 0.00195 µM (active)

N=c1n(CC(=O)c2cccc([N+](=O)[O-])c2)c2ccccc2n1Cc1ccccc1
CC50 [8]: 11.2 µM (active)

COc1ccc(C(CNC(=O)/C=C/c2c(Cl)nc3ccccn23)N(C)C)cc1 (stereo not given)
EC50 [9]: 0.473 µM (active) | EC50 [10]: > 92.5 µM (inactive) | EC50 [11]: > 92.5 µM (inactive) | EC50 [12]: > 92.5 µM (inactive)

CN(C(=O)COC(=O)CNC(=O)C12CC3CC(CC(C3)C1)C2)C1CCS(=O)(=O)C1 (stereo not given)
AC50 [1]: 27.2 µM (active)

COc1cccc(CC2(CO)CCCN(Cc3ccccc3-c3ccco3)C2)c1 (stereo not given)
EC50 [13]: 1.19 µM (active) | EC50 [9]: 2.66 µM (active) | EC50 [10]: > 92.5 µM (inactive) | EC50 [11]: > 92.5 µM (inactive) | EC50 [12]: > 92.5 µM (inactive)

CCOC(=O)N1CCN(C(=O)C2CCCN(c3ncnc4c3nc3n4CCCCC3)C2)CC1 (stereo not given)
IC50 [5]: 12.9 µM (active)

O=C1N(c2ccccc2C(F)(F)F)O[C@]1(c1ccccc1)C1CCCCC1
CC50 [8]: > 25 µM (active)

CN(C)C(CN=C(S)Nc1ccccc1)c1cccnc1 (stereo not given)
EC50 [9]: 0.149 µM (active) | EC50 [10]: > 92.4 µM (inactive) | EC50 [11]: > 92.4 µM (inactive) | EC50 [12]: > 92.4 µM (inactive)

COc1ccc2o/c(=N/NC(=O)c3cccs3)c(C(N)=O)cc2c1
IC50 [14]: > 79 µM (inactive) | IC50 [15]: 38.5 µM (active) | IC50 [16]: > 100 µM (inactive) | IC50 [17]: 79.7 µM (active)

O=C(CSCc1ccc([N+](=O)[O-])cc1)N/N=C/c1cccnc1
IC50 [18]: > 20 µM (inactive) | IC50 [19]: 8.26 µM (active) | IC50 [20]: 10.9 µM (active) | AC50 [21]: > 380 µM (inactive) | EC50 [22]: > 380 µM (inactive)
